Test results from patent US20040127411A1, “Methods for treating lung cancer using insulin-like growth factor binding protein-3” (Insmed, Inc., priority 2002, published 2004).
Where two headings read alike, the source gives them in different places. Marks after values point to notes of the source that are not given here.

Tests used:
3LL Lewis lung tumor = experiment: Treatment of 3LL murine Lewis lung tumors in C57BL6 mice; type: in vivo; conditions: for Mean Tumor Volume: day 23, mean ± SEM
Method: Female C57BL6 mice (8 animals per group) received bilateral SC implants of 3LL Lewis lung tumor fragments on day 0 and were treated subcutaneously with vehicle, rhIGFBP-3 (3 or 10 mg/kg twice daily×21), carboplatin (25 or 50 mg/kg; IP; single dose) or a combination of agents beginning on day 2.

[1] = test system: LoVo colorectal carcinoma xenografts; experiment: Treatment of LoVo human colorectal carcinoma xenografts with rhIGFBP-3 and irinotecan in balb/c nu/nu mice; type: in vivo; conditions: for effect after discontinuation of treatment: treatment discontinued day 21, monitored to day 40
Method: Female balb/c nu/nu mice (8 animals per group) received bilateral SC implants of LoVo colorectal carcinoma fragments which were allowed to grow to volumes of 100-150 mm3 prior to initiation of treatment. Upon establishment of the tumors, mice were treated with vehicle, rhIGFBP-3 (3, 10 or 30 mg/kg twice daily; SC x 21), irinotecan (10 or 20 mg/kg; IP; 4 doses at 4 day intervals) or a combination of agents. All treatment was discontinued on day 21 and mice were monitored for tumor response out to day 40. Net tumor growth was calculated at each time point.

[2] = rat, in vivo, iv
Method: (§1) The purpose of this study was to characterize the pharmacokinetic profile of rhIGFBP-3 following a single IV administration to rats. Adult male Sprague-Dawley rats (N=3/group) were administered doses of 0.8-160 mg/kg rhIGFBP-3 and blood specimens were collected for drug measurement.

[3] = test system: MCF-7 human breast cancer cells; experiment: MCF-7 cell proliferation (MTT) with increasing rhIGFBP-3; type: cell-based; conditions: 5% FBS, 4 days, increasing concentrations
Method: FIG. 5(A) depicts the MCF-7 breast cancer cell proliferation as assayed by MTT in increasing concentrations of rhIGFBP-3.
The purpose of this study was to evaluate the effects of rhIGFBP-3 alone and in combination with radiation therapy in MCF-7 human breast cancer cells. MCF-7 cells were plated and cultured in 5% FBS for 4 days with increasing concentrations of rhIGFBP-3 in the media.

[4] = Pharmacokinetics of rhIGFBP-3 after single IV administration to rats; conditions: for AUC / Cmax: mean ± SD
Method: as §1

SKBR3/IGF-IR = experiment: Growth inhibition (MTT assay), SKBR3/IGF-IR; type: cell-based, human
BT474/HerR = experiment: Growth inhibition (MTT assay), BT474/HerR; type: cell-based, human
MCF-7/HER2-18 = experiment: Growth inhibition (MTT assay), MCF-7/HER2-18; type: cell-based, human
[5] = Pharmacokinetics of rhIGFBP-3 after single SC injection in rats; type: in vivo
Method: The purpose of this study was to characterize the pharmacokinetic profile of rhIGFBP-3 following a single SC administration to rats. Adult male rats (N=5/group) were administered doses of 3-30 mg/kg rhIGFBP-3 by bolus SC injection and blood specimens were collected for drug concentration analysis.

BT474 = experiment: Growth inhibition (MTT assay), BT474; type: cell-based, human
[6] = test system: MCF-7 breast tumor xenografts; experiment: Treatment of established MCF-7 human breast tumors with rhIGFBP-3 and paclitaxel in balb/c nu/nu mice; type: in vivo
Method: Female balb/c nu/nu mice (8 animals per group) received bilateral SC implants of MCF-7 breast tumor fragments which were allowed to grow to volumes of 100-150 mm^3 prior to initiation of treatment. Upon establishment of the tumors, mice were treated with vehicle, rhIGFBP-3 (3, 10 or 30 mg/kg twice daily; SC×21), paclitaxel (10 or 20 mg/kg; IP; daily for 5 days) or a combination of agents. Tumors were measured twice weekly for 3 weeks and net tumor growth was calculated at each time point.

[7] = test system: MCF-7 human breast xenografts; experiment: Early treatment of MCF-7 human breast xenografts in CD1 nu/nu mice; type: in vivo
Method: Female CD1 nu/nu mice (12 animals per group) received SC implants of 5×10^6 MCF-7 cells. On the same day, mice received either vehicle or rhIGFBP-3 IP at a dose of 20 mg/kg. Mice were then treated with either vehicle or rhIGFBP-3 (20 mg/kg twice daily) for 10 weeks. Tumor volume was monitored beginning on week 2 and measured 3 times thereafter. […] In addition, the 3 tumors that did arise in the rhIGFBP-3 group were smaller than those in the control group.

[8] = test system: MCF-7 human breast cancer cells; conditions: for cell survival: 1 μg/mL, day 12
Method: In a second experiment, MCF-7 cells were exposed to increasing doses of irradiation and rhIGFBP-3 24 hours after plating. Cell survival was determined on day 12.

SKBR3 = experiment: Growth inhibition (MTT assay), SKBR3; type: cell-based, human
[9] = IV, 8.0 mg/kg vs 0.8 mg/kg (ten fold increase in dose)
[10] = 20 mg/kg twice daily, after 10 weeks, mean ± SD

N.N.O=C([O-])C1(C(=O)[O-])CCC1.[Pt+2] [Carboplatin, carboplatin, reference compound]
Mean Tumor Volume (3LL Lewis lung tumor; 25 mg/kg IP single dose): 144.92 ± 31.36* mm^3
Mean Tumor Volume (3LL Lewis lung tumor; 50 mg/kg IP single dose): 187.36 ± 37.42* mm^3

CCc1c2c(nc3ccc(OC(=O)N4CCC(N5CCCCC5)CC4)cc13)-c1cc3c(c(=O)n1C2)COC(=O)[C@]3(O)CC [irinotecan, reference compound]
effect after discontinuation of treatment [1]: persisting effect

rhIGFBP-3: recombinant human insulin-like growth factor binding protein-3; preferred form from E. coli, native human sequence, lacks glycosylation
CL/W ([2]; 0.8 mg/kg): 7.07 ± 3.12 mL/min/kg
CL/W ([2]; 8 mg/kg): 13.4 ± 1.62 mL/min/kg
CL/W ([2]; 80 mg/kg): 6.33 ± 1.07 mL/min/kg
CL/W ([2]; 160 mg/kg): 9.65 ± 2.42 mL/min/kg
maximum growth suppression compared to control [3]: 50%
drug concentration in the serum ([4]; IV 0.8 mg/kg, four hours after administration, below quantitative limitation of the assay): < 300 ng/mL
AUC ([4]; IV, 0.8 mg/kg): 2172 ± 999 ng·h/mL
Cmax ([4]; IV, 0.8 mg/kg): 3067 ± 551 ng/mL
fold increase in AUC [4, 9]: 4.6 fold
fold increase in Cmax [4, 9]: 1.6 fold
AUC ([4]; IV, 8.0 mg/kg): 10057 ± 1248 ng·h/mL
Cmax ([4]; IV, 8.0 mg/kg): 4967 ± 1159 ng/mL
AUC ([4]; IV, 80 mg/kg): 215060 ± 39102 ng·h/mL
AUC ([4]; IV, 160 mg/kg): 287575 ± 64180 ng·h/mL
Cmax ([4]; IV, 160 mg/kg): 476667 ± 122202 ng/mL
drug serum concentrations 8 hours after dosing ([4]; IV, all dose groups other than 0.8 mg/kg): detectable
Cmax ([4]; IV): 360333 ± 62772 ng/mL
adverse clinical signs ([4]; single IV, any dose tested (0.8-160 mg/kg)): no adverse clinical signs
Growth Inhibition (MTT Assay) (SKBR3/IGF-IR; 0.1-100 μg/ml): 12-40%
effect when combined with Herceptin, in words (SKBR3/IGF-IR; combined with Herceptin): strong dose-dependent increase in Herceptin sensitivity
growth inhibition in words, single agent (SKBR3/IGF-IR; single agent): marked dose-dependent growth inhibition
Growth Inhibition (MTT Assay) (BT474/HerR; 0.1-100 μg/ml): 10-26%
effect when combined with Herceptin, in words (BT474/HerR; combined with Herceptin): strong dose-dependent increase in Herceptin sensitivity
growth inhibition in words, single agent (BT474/HerR; single agent): less pronounced effect
Growth Inhibition (MTT Assay) (MCF-7/HER2-18; 0.1-100 μg/ml): 15-55%
effect when combined with Herceptin, in words (MCF-7/HER2-18; combined with Herceptin, compared to rhIGFBP-3 alone): marginal dose-dependent increase in growth inhibition
growth inhibition in words, single agent (MCF-7/HER2-18; single agent): marked dose-dependent growth inhibition
absorption following SC administration ([5]; SC): readily absorbed into the circulation
AUC ([5]; SC, 3 mg/kg): 5347 ± 909 ng·h/mL
CL/W ([5]; SC, 3 mg/kg): 9.63 ± 2.03 mL/min/kg
Cmax ([5]; SC, 3 mg/kg): 751 ± 120 ng/mL
AUC ([5]; SC, 10 mg/kg): 12999 ± 933 ng·h/mL
CL/W ([5]; SC, 10 mg/kg): 12.9 ± 1 mL/min/kg
Cmax ([5]; SC, 10 mg/kg): 2255 ± 217 ng/mL
increase in AUC compared to the 3 mg/kg group ([5]; SC, 10 mg/kg): approximately 2.5 fold
AUC ([5]; SC, 30 mg/kg): 54476 ± 7517 ng·h/mL
CL/W ([5]; SC, 30 mg/kg): 9.33 ± 1.42 mL/min/kg
Cmax ([5]; SC, 30 mg/kg): 6924 ± 1021 ng/mL
increase in AUC compared to the 3 mg/kg group ([5]; SC, 30 mg/kg): ~10 fold
signs of toxicity ([5]; single SC, 3-30 mg/kg): No signs of toxicity
Growth Inhibition (MTT Assay) (BT474; 0.1-100 μg/ml): 10-20%
effect when combined with Herceptin, in words (BT474; combined with Herceptin): did not significantly enhance Herceptin sensitivity
net tumor growth, single agent ([6]; 3, 10 or 30 mg/kg twice daily SC x21): did not inhibit net tumor growth
effect in combination with paclitaxel ([6]; maximum effect at 10 mg/kg rhIGFBP-3 and 20 mg/kg paclitaxel): enhanced the effect of paclitaxel
Mean Tumor Volume (3LL Lewis lung tumor; 3 mg/kg twice daily SC x21): 289.00 ± 42.97 mm^3
reduction in tumor volume compared with carboplatin (3LL Lewis lung tumor; 10 mg/kg twice daily): equal to that observed with the standard chemotherapeutic agent carboplatin
Mean Tumor Volume (3LL Lewis lung tumor; 10 mg/kg twice daily SC x21): 149.73 ± 25.34* mm^3
3LL Lewis lung tumor growth, single agent (3LL Lewis lung tumor; 3 or 10 mg/kg twice daily SC): dose-dependently inhibited
effect in combination with carboplatin (3LL Lewis lung tumor; rhIGFBP-3 3 or 10 mg/kg twice daily + carboplatin 25 or 50 mg/kg IP): did not potentiate the effects of carboplatin
Number of Mice with Tumors ([7]; 20 mg/kg twice daily IP, after 10 weeks): 3/12
MCF-7 tumor establishment compared to control ([7]; 20 mg/kg twice daily for 10 weeks): prevented MCF-7 tumor establishment
Mean Tumor Volume [7, 10]: 37.7 ± 42.0 mm^3
Mean Tumor Weight [7, 10]: 0.046 ± 0.047 g
tumor volume compared to control, all mice in each group ([7]; end of treatment, p≦0.05): significantly lower
net tumor growth, combination with irinotecan ([1]; 30 mg/kg rhIGFBP-3 + 10 mg/kg irinotecan): optimal results
inhibition of net tumor growth, single agent, vs 10 mg/kg irinotecan ([1]; 30 mg/kg twice daily SC x21): equally effective
effect after discontinuation of treatment [1]: persisting effect
cell survival ([8]; 0 Gy): ~65%
cell survival ([8]; 2 Gy): 37%
cell survival ([8]; 4 Gy): 21%
cell survival ([8]; 6 Gy): 5%
effect on radiation-induced cell death ([8]; all radiation doses): accentuated this effect on cell death at all doses
Growth Inhibition (MTT Assay) (SKBR3; 0.1-100 μg/ml): 20-40%
effect when combined with Herceptin, in words (SKBR3; combined with Herceptin): modest effect
